biological target: DGKα (Homo sapiens (Human), UniProt P23743); assay: Human DGKα kinase activity inhibition assay (ADP-Glo); assay type: biochemical; conditions: recombinant full-length human DGKα, 55 μM ATP, 7 μM 1,2-dioleoyl-sn-glycerol, read-out: IC50 values of examples in in vitro human DGKa kinase activity inhibition assays
Method in brief: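 Recombinant full-length human DGKα (C-terminal FLAG, from insect cells) phosphorylated 1,2-dioleoyl-sn-glycerol presented in octyl-glucopyranoside micelles. ADP formed was quantified by ADP-Glo luminescence. Compounds were added from 100-fold DMSO stocks.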

Chain of DGKα (P23743 other isoform, or with tags, fused parts or gaps): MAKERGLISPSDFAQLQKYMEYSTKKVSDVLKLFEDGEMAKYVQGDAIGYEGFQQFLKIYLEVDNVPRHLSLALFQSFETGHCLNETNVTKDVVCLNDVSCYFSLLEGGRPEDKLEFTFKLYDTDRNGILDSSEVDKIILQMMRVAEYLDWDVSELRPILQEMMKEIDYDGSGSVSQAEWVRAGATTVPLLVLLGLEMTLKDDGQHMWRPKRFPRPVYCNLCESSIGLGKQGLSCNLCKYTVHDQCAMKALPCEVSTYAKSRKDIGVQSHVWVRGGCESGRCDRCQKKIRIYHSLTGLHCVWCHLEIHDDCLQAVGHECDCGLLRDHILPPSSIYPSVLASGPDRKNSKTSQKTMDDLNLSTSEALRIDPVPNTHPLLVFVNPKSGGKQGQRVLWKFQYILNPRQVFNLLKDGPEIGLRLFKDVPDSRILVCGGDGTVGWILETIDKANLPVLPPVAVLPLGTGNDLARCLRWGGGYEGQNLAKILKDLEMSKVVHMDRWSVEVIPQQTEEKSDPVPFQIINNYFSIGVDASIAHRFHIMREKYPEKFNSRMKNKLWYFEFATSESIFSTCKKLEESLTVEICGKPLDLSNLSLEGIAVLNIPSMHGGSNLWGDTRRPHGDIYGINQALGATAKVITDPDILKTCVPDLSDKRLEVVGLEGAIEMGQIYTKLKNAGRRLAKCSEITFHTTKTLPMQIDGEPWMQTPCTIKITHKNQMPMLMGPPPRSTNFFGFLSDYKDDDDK

Row | Structure (SMILES) | IC50 [nM]
1 | Cc1ccc2oc(C3CCN(c4c(C#N)c(=O)n(C)c5cc(OCC6CCOC6)c(Cl)cc45)CC3)nc2c1 (racemic) [Example 572, (rac)-6-chloro-1-methyl-4-[4-(5-methyl-1,3-benzoxazol-2-yl)piperidin-1-yl]-2-oxo-7-[(oxolan-3-yl)methoxy]-1,2-dihydroquinoline-3-carbonitrile] | 1.5
2 | COc1ccc(C2CCN(c3c(C#N)c(=O)n(C)c4cc(N5CCCC5=O)ccc34)CC2)cc1 [Example 96, 4-[4-(4-methoxyphenyl)piperidin-1-yl]-1-methyl-2-oxo-7-(2-oxopyrrolidin-1-yl)-1,2-dihydroquinoline-3-carbonitrile] | 20
3 | Cc1cc(F)cc(C2CCN(c3c(C#N)c(=O)n(C)c4ccccc34)CC2)c1 [Example 51, 4-[4-(3-fluoro-5-methylphenyl)piperidin-1-yl]-1-methyl-2-oxo-1,2-dihydroquinoline-3-carbonitrile] | 8.3
4 | Cc1ccc2oc(C3(C)CCN(c4c(C#N)c(=O)n(C)c5cc(CC6COC6)ccc45)CC3)nc2c1 [Example 285, 1-methyl-4-[4-methyl-4-(5-methyl-1,3-benzoxazol-2-yl)piperidin-1-yl]-7-[(oxetan-3-yl)methyl]-2-oxo-1,2-dihydroquinoline-3-carbonitrile] | 10
5 | Cn1c(=O)c(C(N)=O)c(N2CCC(c3ccccc3)CC2)c2ccccc21 [Example 114, 1-methyl-2-oxo-4-(4-phenylpiperidin-1-yl)-1,2-dihydroquinoline-3-carboxamide] | 15
6 | Cn1c(=O)c(C#N)c(N2CCC(c3ccc4c(c3)OC(C)(C)O4)CC2)c2ccccc21 [Example 360, 4-[4-(2,2-dimethyl-2H-1,3-benzodioxol-5-yl)piperidin-1-yl]-1-methyl-2-oxo-1,2-dihydroquinoline-3-carbonitrile] | 1.2
7 | Cn1c(=O)c(C(N)=O)c(N2CCC(O)(c3cc4ccccc4s3)CC2)c2ccccc21 [Example 456, 4-[4-(1-benzothiophen-2-yl)-4-hydroxypiperidin-1-yl]-1-methyl-2-oxo-1,2-dihydroquinoline-3-carboxamide] | 41
8 | Cc1ccc2oc(C3(C)CCN(c4c(C#N)c(=O)n(C)c5cc(OC6CCC6)ccc45)CC3)nc2c1 [Example 247, 7-(cyclobutyloxy)-1-methyl-4-[4-methyl-4-(5-methyl-1,3-benzoxazol-2-yl)piperidin-1-yl]-2-oxo-1,2-dihydroquinoline-3-carbonitrile] | 6.9
9 | Cc1ccc2oc([C@H]3CCN(c4c(C#N)c(=O)n(C)c5ccccc45)[C@@H](C)C3)nc2c1 [Example 326, 1-methyl-4-[(2S,4S)-2-methyl-4-(5-methyl-1,3-benzoxazol-2-yl)-1-piperidyl]-2-oxo-quinoline-3-carbonitrile] | 34
10 | COC1(c2cccc(Cl)c2)CCN(c2c(C#N)c(=O)n(C)c3ccccc23)CC1 [Example 336, 4-[4-(3-chlorophenyl)-4-methoxypiperidin-1-yl]-1-methyl-2-oxo-1,2-dihydroquinoline-3-carbonitrile] | 80
11 | Cc1ccccc1C1CCN(c2c(C#N)c(=O)n(C)c3ccccc23)CC1 [Example 82, 1-methyl-4-[4-(2-methylphenyl)piperidin-1-yl]-2-oxo-1,2-dihydroquinoline-3-carbonitrile] | 11
12 | CCCOc1ccc2c(N3CCC(c4nc5ccccc5s4)CC3)c(C#N)c(=O)n(C)c2c1 [Example 270, 4-[4-(1,3-benzothiazol-2-yl)piperidin-1-yl]-1-methyl-2-oxo-7-propoxy-1,2-dihydroquinoline-3-carbonitrile] | 72
13 | Cn1c(=O)c(C#N)c(N2CCC(c3nc4ccccc4o3)CC2)c2cccc(F)c21 [Example 155, 4-[4-(1,3-benzoxazol-2-yl)piperidin-1-yl]-8-fluoro-1-methyl-2-oxo-1,2-dihydroquinoline-3-carbonitrile] | 60
14 | Cc1ccc2oc(C3CCN(c4c(C(N)=O)c(=O)n(C)c5cc(OC6COC6)ccc45)CC3)nc2c1 [Example 485, 1-methyl-4-[4-(5-methyl-1,3-benzoxazol-2-yl)piperidin-1-yl]-7-[(oxetan-3-yl)oxy]-2-oxo-1,2-dihydroquinoline-3-carboxamide] | 2
15 | COc1ccc2oc(C3CCN(c4c(C(N)=O)c(=O)n(C)c5ccccc45)CC3)nc2c1 [Example 486, 4-[4-(5-methoxy-1,3-benzoxazol-2-yl)piperidin-1-yl]-1-methyl-2-oxo-1,2-dihydroquinoline-3-carboxamide] | 5.6
16 | Cn1c(=O)c(C#N)c(N2CCC(c3nc4cc(F)ccc4o3)CC2)c2ccccc21 [Example 6, 4-[4-(5-fluoro-1,3-benzoxazol-2-yl)piperidin-1-yl]-1-methyl-2-oxo-1,2-dihydroquinoline-3-carbonitrile] | 4.3
17 | Cn1c(=O)c(C#N)c(N2CCC(c3nc4cccc(F)c4o3)CC2)c2ccccc21 [Example 3, 4-[4-(7-fluoro-1,3-benzoxazol-2-yl)piperidin-1-yl]-1-methyl-2-oxo-1,2-dihydroquinoline-3-carbonitrile] | 2.6

Row | Structure (SMILES) | IC50 [nM]
18 | Cn1c(=O)c(C(N)=O)c(N2CCC(c3nc4cc(N5CCCC5=O)ccc4o3)CC2)c2ccccc21 [Example 450, 1-methyl-2-oxo-4-{4-[5-(2-oxopyrrolidin-1-yl)-1,3-benzoxazol-2-yl]piperidin-1-yl}-1,2-dihydroquinoline-3-carboxamide] | 119
19 | Cc1ccc2oc(C3CCN(c4c(C#N)c(=O)n(C)c5ccc(C(N)=O)cc45)CC3)nc2c1 [Example 404, 3-cyano-1-methyl-4-[4-(5-methyl-1,3-benzoxazol-2-yl)piperidin-1-yl]-2-oxo-1,2-dihydroquinoline-6-carboxamide] | 5.3
20 | Cc1ccc2oc(C3(C)CCN(c4c(C#N)c(=O)n(C)c5ccc(O)cc45)CC3)nc2c1 [Example 242, 6-hydroxy-1-methyl-4-[4-methyl-4-(5-methyl-1,3-benzoxazol-2-yl)piperidin-1-yl]-2-oxo-1,2-dihydroquinoline-3-carbonitrile] | 2.7
21 | COC1(c2nc3ccccc3o2)CCN(c2c(C#N)c(=O)n(C)c3ccccc23)CC1 [Example 390, 4-[4-(1,3-benzoxazol-2-yl)-4-methoxypiperidin-1-yl]-1-methyl-2-oxo-1,2-dihydroquinoline-3-carbonitrile] | 3.5
22 | Cc1cc(C#N)c2cc(C3CCN(c4c(C#N)c(=O)n(C)c5ccccc45)CC3)ccc2n1 [Example 344, 6-[1-(3-cyano-1-methyl-2-oxo-1,2-dihydroquinolin-4-yl)piperidin-4-yl]-2-methylquinoline-4-carbonitrile] | 489
23 | Cc1ccc2nc(C3CCN(c4c(C#N)c(=O)n(C)c5ccccc45)CC3)oc2c1 [Example 7, 1-methyl-4-[4-(6-methyl-1,3-benzoxazol-2-yl)piperidin-1-yl]-2-oxo-1,2-dihydroquinoline-3-carbonitrile] | 3.2
24 | Cn1c(=O)c(C(N)=O)c(N2CCC(C)(c3nc4ccccc4o3)CC2)c2ccc(F)cc21 [Example 303, 4-[4-(1,3-benzoxazol-2-yl)-4-methylpiperidin-1-yl]-7-fluoro-1-methyl-2-oxo-1,2-dihydroquinoline-3-carboxamide] | 1.9
25 | Cn1c(=O)c(C(N)=O)c(N2CCC(c3nc(-c4ccccc4)no3)CC2)c2cc(Br)ccc21 [Example 523, 6-bromo-1-methyl-2-oxo-4-[4-(3-phenyl-1,2,4-oxadiazol-5-yl)piperidin-1-yl]-1,2-dihydroquinoline-3-carboxamide] | 3.7
26 | Cc1ccc2oc(C3(C)CCN(c4c(C#N)c(=O)n(C)c5c(S(C)(=O)=O)cccc45)CC3)nc2c1 [Example 164, 8-(methanesulfonyl)-1-methyl-4-[4-methyl-4-(5-methyl-1,3-benzoxazol-2-yl)piperidin-1-yl]-2-oxo-1,2-dihydroquinoline-3-carbonitrile] | 1.1
27 | CNC(=O)c1c(N2CCC(c3nc4cc(C)ccc4o3)CC2)c2ccccc2n(C)c1=O [Example 448, N,1-dimethyl-4-[4-(5-methyl-1,3-benzoxazol-2-yl)piperidin-1-yl]-2-oxo-1,2-dihydroquinoline-3-carboxamide] | 27
28 | Cc1ccc2oc(C3CCN(c4c(C(N)=O)c(=O)n(C)c5cc(OCC6CO6)ccc45)CC3)nc2c1 (stereo not shown) [Example 481, 1-methyl-4-[4-(5-methyl-1,3-benzoxazol-2-yl)piperidin-1-yl]-7-{[oxiran-2-yl]methoxy}-2-oxo-1,2-dihydroquinoline-3-carboxamide] | 2
29 | COc1ccc2cc(C3CCN(c4c(C#N)c(=O)n(C)c5ccccc45)CC3)ccc2c1 [Example 343, 4-[4-(6-methoxynaphthalen-2-yl)piperidin-1-yl]-1-methyl-2-oxo-1,2-dihydroquinoline-3-carbonitrile] | 16
30 | Cn1c(=O)c(C#N)c(N2CCC(c3ccc(Cl)cc3)CC2)c2ccccc21 [Example 54, 4-[4-(4-chlorophenyl)piperidin-1-yl]-1-methyl-2-oxo-1,2-dihydroquinoline-3-carbonitrile] | 14
31 | Cn1c(=O)c(C(N)=O)c(N2CCC(c3ccn(-c4cccc(Cl)c4)n3)CC2)c2ccccc21 [Example 474, 4-{4-[1-(3-chlorophenyl)-1H-pyrazol-3-yl]piperidin-1-yl}-1-methyl-2-oxo-1,2-dihydroquinoline-3-carboxamide] | 4.6
32 | Cc1ccccc1-c1nnc(C2CCN(c3c(C(N)=O)c(=O)n(C)c4ccc(Br)cc34)CC2)o1 [Example 525, 6-bromo-1-methyl-4-{4-[5-(2-methylphenyl)-1,3,4-oxadiazol-2-yl]piperidin-1-yl}-2-oxo-1,2-dihydroquinoline-3-carboxamide] | 39
33 | Cn1c(=O)c(C#N)c(N2CCC(c3cccnc3)CC2)c2ccccc21 [Example 144, 1-methyl-2-oxo-4-[4-(pyridin-3-yl)piperidin-1-yl]-1,2-dihydroquinoline-3-carbonitrile] | 897
34 | CC(C)c1ccc2oc(C3CCN(c4c(C#N)c(=O)n(C)c5ccccc45)CC3)nc2c1 [Example 8, 1-methyl-2-oxo-4-{4-[5-(propan-2-yl)-1,3-benzoxazol-2-yl]piperidin-1-yl}-1,2-dihydroquinoline-3-carbonitrile] | 3.2

— patent publication US11998539B2, “Substituted aminoquinolones as DGKalpha inhibitors for immune activation” (Bayer Aktiengesellschaft, priority 2019, dated 2024)
